“Also recorded” adds a separate entry of the source.
Experiments:
Vibrio percolans = assay: agar-diffusion bioassay using Vibrio percolans; format: cell-based; details: Comamonas terrigena; concentration of 200 μ/ml.; LH-20 product
Method: A 0.5 ml. solution of methanol containing 106 mg. of FR-02A obtained from Example 1 above is charged to a 75 ml. bed (1.25 cm. dia. × 56 cm. ht.) of Sephadex LH-20 gel in methanol (Pharmacia Fine Chemicals, Inc., Piscataway, N.J.). The column is developed with methanol. […] Fractions are bioassayed at a 1-10 dilution with 1/2 dia. paper discs on agar-diffusion assay plates seeded with Vibrio percolans. Zones of inhibition are obtained corresponding to the third mass peak (KD = 0.3) detected. The fractions corresponding to the third mass peak are combined and evaporated to yield 43 mg. of FR-02A.
The product when assayed in the above agar-diffusion bioassay using Vibrio percolans gives a 16 mm. zone of inhibition at a concentration of 200 μ/ml. The U.V. absorption in pH 7.0 phosphate buffer was: […]

Bacillus sp. 633 = assay: Antibiotic Spectrum Profile, agar diffusion test; format: cell-based; details: 1 mg./ml., read-out: Diameters of Inhibition Zones
Method: To further characterize FR-02A in vitro, activity data for it was obtained using an antibiotic spectrum profile. The test involves applications of a droplet of antibiotic approximately 0.015 ml. on the surface of seeded complex agar plates. […] The results are reported in Table 1 in terms of mm. of inhibition zones.

[1] = system: Staphylococcus aureus 108; assay: Antibiotic Spectrum Profile, agar diffusion test; format: cell-based; details: 1 mg./ml., read-out: Diameters of Inhibition Zones
Sarcina lutea 1101 = assay: Antibiotic Spectrum Profile, agar diffusion test; format: cell-based; details: Micrococcus luteus, 1 mg./ml., read-out: Diameters of Inhibition Zones
Alcaligenes faecalis 10 = assay: Antibiotic Spectrum Profile, agar diffusion test; format: cell-based; details: 1 mg./ml., read-out: Diameters of Inhibition Zones
[2] = system: Brucella bronchiseptica 965; assay: microbe, parasite or virus in culture; format: cell-based; details: Bordetella bronchiseptica, 965, read-out: Diameters of Inhibition Zones
[3] = system: Salmonella gallinarum 1287; assay: Antibiotic Spectrum Profile, agar diffusion test; format: cell-based; details: Salmonella enterica, 1 mg./ml., read-out: Diameters of Inhibition Zones
Vibrio percolans 1272 = assay: Antibiotic Spectrum Profile, agar diffusion test; format: cell-based; details: Comamonas terrigena, 1 mg./ml., read-out: Diameters of Inhibition Zones
[4] = system: Xanthomonas vesicatoria 815; assay: Antibiotic Spectrum Profile, agar diffusion test; format: cell-based; details: 1 mg./ml., read-out: Diameters of Inhibition Zones
Ps. stutzeri 1231 = assay: Antibiotic Spectrum Profile, agar diffusion test; format: cell-based; details: Stutzerimonas stutzeri, 1 mg./ml., read-out: Diameters of Inhibition Zones
[5] = system: Corynebacterium pseudodiphtheriticum 261; assay: Antibiotic Spectrum Profile, agar diffusion test; format: cell-based; details: 1 mg./ml., read-out: Diameters of Inhibition Zones
S. aureus 2756 = assay: Antibiotic Spectrum Profile, agar diffusion test; format: cell-based; details: Staphylococcus aureus, 1 mg./ml., read-out: Diameters of Inhibition Zones
[6] = system: S. aureus (res. Erythromycin) 1909; assay: Antibiotic Spectrum Profile, agar diffusion test; format: cell-based; details: Staphylococcus aureus, 1 mg./ml., read-out: Diameters of Inhibition Zones
[7] = toxicity studies in noninfected mice; format: in vivo; details: for Toxicity, Tolerated / Toxicity, Toxic: IP
Method: *Values in the table are expressed in mg./mouse. Both infections and
therapeutic doses of FR-02A were administered intraperitoneally. FR-02A
was administered at time of infection and again 6 hours later.
**Toxicity studies of FR-02A in noninfected mice indicate that two doses
of 2.5 mg./mouse, 6 hours apart are tolerated; but higher doses i.e. 5 to […]

[8] = system: Bordetella bronchiseptica; assay: systemic infections produced by Bordetella bronchiseptica in mice; format: in vivo; details: orally
PPLO = PPLO in chickens; format: in vivo
gram-negative bacteria = assay: antibacterial activity; format: cell-based
stability to handling = format: physicochemical; details: pale yellow solid
E. acervulina = assay: in vitro activity; format: cell-based
Streptococcus pyogenes = assay: in vitro activity; format: cell-based
[9] = system: Klebsiella pneumoniae (MB 1264); assay: in vitro activity; format: cell-based
[10] = system: Pseudomonas stutzeri (MB 2765); assay: in vitro activity; format: cell-based
[11] = system: Bacillus subtilis (MB 964); assay: in vitro activity; format: cell-based
[12] = system: Staphylococcus aureus (MB 210); assay: in vitro activity; format: cell-based
[13] = system: Pseudomonas aeruginosa (MB 3210); assay: in vitro activity; format: cell-based

Q: For `CC=CC=CC1OC(O)(C(CC)C(=O)NCC=CC=C(C)C(OC)C(C)C2OC(C=CC=CC=C(C)C(=O)c3c(O)ccn(C)c3=O)C(O)C2O)C(O)C(OC2OC(C)C(OC3OC(C)C(OC)C(O)C3OC)C(OC)C2O)C1(C)C` (stereo not drawn) [FR-02A, efrotomycin], which zone of inhibition at 200 µg/mL (Vibrio percolans) is on record?
A: Its zone of inhibition at 200 µg/mL is 16 mm.

Q: And the zone of inhibition at 1000 µg/mL (Bacillus sp. 633)?
A: The zone of inhibition at 1000 µg/mL was 18 mm.

Q: And the zone of inhibition at 1000 µg/mL [1]?
A: The zone of inhibition at 1000 µg/mL was 11 mm.

Q: What about the zone of inhibition at 1000 µg/mL (Sarcina lutea 1101) of the same molecule?
A: Its zone of inhibition at 1000 µg/mL is 28 mm.

Q: And the zone of inhibition at 1000 µg/mL (Alcaligenes faecalis 10)?
A: The zone of inhibition at 1000 µg/mL was 19 mm.

Q: And the zone of inhibition at 1000 µg/mL [2]?
A: Its zone of inhibition at 1000 µg/mL is 18 mm.

Q: What about the zone of inhibition at 1000 µg/mL [3] of the same molecule?
A: The zone of inhibition at 1000 µg/mL was 13 mm.

Q: What about the zone of inhibition at 1000 µg/mL (Vibrio percolans 1272) of the same molecule?
A: The zone of inhibition at 1000 µg/mL was 21 mm.

Q: And the zone of inhibition at 1000 µg/mL [4]?
A: Its zone of inhibition at 1000 µg/mL is 13 mm.

Q: What about the zone of inhibition at 1000 µg/mL (Ps. stutzeri 1231) of the same molecule?
A: The zone of inhibition at 1000 µg/mL was 10 mm.

Q: And the zone of inhibition at 1000 µg/mL [5]?
A: Its zone of inhibition at 1000 µg/mL is 27 mm.

Q: What about the zone of inhibition at 1000 µg/mL (S. aureus 2756) of the same molecule?
A: The zone of inhibition at 1000 µg/mL was 23 mm.

Q: What about the zone of inhibition at 1000 µg/mL [6] of the same molecule?
A: The zone of inhibition at 1000 µg/mL was 16 mm.

Q: And the “Toxicity, Tolerated” value ([7]; Table 2 line Proteus vulgaris)?
A: Its value is 5.0 mg./mouse.

Q: And the “Toxicity, Toxic” value ([7]; Table 2 line Proteus vulgaris)?
A: The value was 5.0 mg./mouse.

Q: What about the “Toxicity, Tolerated” value ([7]; Table 2 line Strep. pyogenes) of the same molecule?
A: Its value is 1.25 mg./mouse.

Q: And the “Toxicity, Toxic” value ([7]; Table 2 line Strep. pyogenes)?
A: Its value is 5.0 mg./mouse.

Q: What about the toxicity in vivo ([7]; in mice, in words) of the same molecule?
A: The toxicity in vivo was “low toxicity”.

Q: And the tolerated dose ([7]; noninfected mice, two doses 6 hours apart)?
A: The tolerated dose was 2.5 mg./mouse.

Q: What about the “efficacy in systemic infections produced by Bordetella bronchiseptica” value [8] of the same molecule?
A: Its value is “orally effective”.

Q: What about the “efficacy against PPLO” value (PPLO) of the same molecule?
A: The value was “effective”.

Q: And the “activity against gram-negative bacteria” value (gram-negative bacteria)?
A: Its value is “shows activity; also recorded: effective”.

Q: What about the “stability to normal handling” value (stability to handling) of the same molecule?
A: Its value is “stable to normal handling”.

Q: What about the in vitro activity (E. acervulina) of the same molecule?
A: The in vitro activity was “effective”.

Q: And the in vitro activity (Streptococcus pyogenes)?
A: Its in vitro activity is “effective”.

Q: What about the activity [9] of the same molecule?
A: Its activity is “Activity was also found”.

Q: And the activity [10]?
A: Its activity is “Activity was also found”.

Q: What about the activity [11] of the same molecule?
A: Its activity is “Activity was also found”.

Q: What about the activity [12] of the same molecule?
A: Its activity is “Activity was also found”.

Q: And the activity [13]?
A: Its activity is “Activity was also found”.

Source: patent publication US4065356A, “Production of antibiotic FR-02A (efrotomycin) by streptomyces lactamdurans” (priority 1977, dated 1977)
